Test results as given in US6974806B2, “Lipid-rich plaque inhibitors” (Takeda Pharmaceutical Company Limited, priority 2000, dated 2005).

Tests used:
[1] = tested on: male apo-lipoprotein E deficient mouse; assay: Experiment 2: plaque regression, % lesion area and aortic cholesteryl ester content in apoE KO mouse; format: in vivo; settings: arteriosclerotic diet 8 weeks, then normal diet with 30 mg/kg/day oral for 4 weeks
Procedure: (§1) [Results] The lesion (plaque) area based on the vascular internal surface area was 31% in the group fed only the normal diet after 9th week. […] Experiment 2 [Method] […] Subsequently, from the 9th week to the 12th week, Compound B (0.5% methyl cellulose suspension: at 30 mg/kg/day) was administered orally, during the period only CE-2 powder, which is a normal diet, was given. The control group was maintained with only CE-2 diet. Each animal was sacrificed by decapitation 12 weeks after initiation of the experiment, the vessel from the aortic arch to the femoral bifurcation was isolated and opened in the direction of the vascular axis, stained with oil red O (Sigma Aldrich Japan), and subjected to an image analysis similarly to Experiment 1 to calculate the % lesion area based on the entire vascular internal wall area. The vessel specimen after the image analysis was homogenized in saline, and the amount of cholesteryl ester content in the aorta was measured in accordance with the method by Hara and Radin (Lipid Extract of tissues with a low-Toxicity solvent, Anal. Biochem., 90:420-426, 1978), that is, from the aorta stained with the oil red O was extracted the lipid by a glass homogenizer with hexane:isopropyl alcohol (3:2) and centrifuged. Subsequently, the supernatant was recovered and evaporated to dryness, and then dissolved in TESIT: dioxane (1:1). From this solution, its total cholesterol content (Cholesterol C test, WAKO) and the free cholesterol content (Free Cholesterol C test, WAKO) were examined. The data obtained were corrected for the wet weight of the aorta. The cholesteryl ester content (CE) was obtained by subtracting the free cholesterol content from the total cholesterol content. Since the sample, which was extracted with hexane:isopropyl alcohol and then evaporated to dryness, contained the oil red O which interferes with the absorption wavelength for the cholesterol measurement, the cholesterol content was calculated for each sample by subtracting the blank level (absorbance of oil red O in sample). [Results]

[2] = tested on: male apo-lipoprotein E deficient mouse; assay: Experiment 3: plaque regression, % lesion area and aortic cholesteryl ester content in apoE KO mouse; format: in vivo; settings: arteriosclerotic diet 8 weeks
Procedure: as §1
[Method] […] The control group was maintained with only CE-2 diet. Each animal was sacrificed by decapitation 12 weeks after initiation of the experiment, the vessel from the aortic arch to the femoral bifurcation was isolated and opened in the direction of the vascular axis, stained with oil red O (Sigma Aldrich Japan), and subjected to an image analysis similarly to Experiment 1 to calculate the % lesion area based on the entire vascular internal wall area. The vessel specimen after the image analysis was homogenized in saline, and the amount of cholesteryl ester content in the aorta was measured by an enzymatic method similarly to Experiment 2 described above. [Results]

Row | Compound | melting point | other results
1 | COc1cccc(OC)c1NC(=O)Nc1oc2cc3c(cc2c1-c1ccccc1C)CCC3 [Compound B, N-(2,6-dimethoxyphenyl)-N′-[3-(2-methylphenyl)-6,7-dihydro-5H-indeno[5,6-b]furan-2-yl]urea] |  | aortic cholesteryl ester content ([1]; apoE KO mice, control 9.42): 4.76 µg/mg; % lesion area ([1]; apoE KO mice, control 22.6%): 16.9%; % lesion area ([1]; apoE KO mouse, n = 4): 16.9 ± 1.6%; aortic cholesteryl ester content ([1]; apoE KO mouse, n = 4, P < 0.05% (Dunnett's test)): 4.76 ± 0.46 µg/mg
2 | O=C(Cc1c(-c2ccccc2)c2cc3c(cc2oc1=O)CCC3)Nc1ccc(Cl)cc1C(F)(F)F [Compound C, N-(4-chloro-2-trifluoromethylphenyl)-2-(2-oxo-4-phenyl-2,6,7,8-tetrahydrocyclopenta[g]chromen-3-yl)acetamide] | 198 to 200 °C | aortic cholesteryl ester content ([2]; apoE KO mice, then normal diet oral for 4 weeks (method: 10 mg/kg/day), control 6.83): 5.3 µg/mg; % lesion area ([2]; apoE KO mice, then normal diet oral for 4 weeks (method: 10 mg/kg/day), control 31.2%): 23.3%
3 | CCOc1cccc(OCC)c1NC(=O)Cc1c(-c2ccccc2)c2cc(Cl)c(Cl)cc2oc1=O [Example 37] | 246 to 247 °C | 
4 | CC(C)c1cccc(C(C)C)c1NC(=O)Cc1c(-c2ccccc2)c2cc(Cl)c(Cl)cc2oc1=O [Example 39] | 289 to 290 °C | 
5 | COc1cccc(OC)c1NC(=O)Cc1c(-c2ccccc2)c2cc(Cl)c(Cl)c(Cl)c2oc1=O [Example 40] | 289 to 291 °C | 
6 | COc1cccc(OC)c1NC(=O)Cc1c(-c2ccccc2)c2cc(F)c(F)cc2oc1=O [Example 41] | 196 to 198 °C | 
7 | CC(C)c1cccc(C(C)C)c1NC(=O)Cc1c(-c2ccccc2)c2cc(F)c(F)cc2oc1=O [Example 42] | 255 to 256 °C | 
8 | O=C(Cc1c(-c2ccccc2)c2cc(F)c(F)cc2oc1=O)Nc1c(OC2CCCC2)cccc1OC1CCCC1 [Example 44] | 253 to 254 °C | 
9 | COc1cccc(OC)c1NC(=O)Cc1c(-c2ccccc2)c2cc(C)c(Cl)cc2oc1=O [Example 45] | 247 to 249 °C | 
10 | Cc1cc2c(-c3ccccc3)c(CC(=O)Nc3c(C(C)C)cccc3C(C)C)c(=O)oc2cc1Cl [Example 46] | 280 to 282 °C | 
11 | COc1cccc(OC)c1NC(=O)Cc1c(-c2ccccc2)c2cc(CN(C)C)c(Cl)cc2oc1=O [Example 70, 2-[7-chloro-6-{(dimethylamino)methyl}-2-oxo-4-phenyl-2H-chromen-3-yl]-N-(2,6-dimethoxyphenyl)acetamide] | 221 to 223 °C | 
12 | COc1cccc(OC)c1NC(=O)Cc1c(-c2ccccc2)c2cc(CN3CCOCC3)c(Cl)cc2oc1=O [Example 71] | 209 to 211 °C | 
13 | CC(C)c1cccc(C(C)C)c1NC(=O)Cc1c(-c2ccccc2)c2cc(CN(C)C)c(Cl)cc2oc1=O [Example 72] | 301 to 303 °C | 
14 | CC(C)c1cccc(C(C)C)c1NC(=O)Cc1c(-c2ccccc2)c2cc(CN3CCOCC3)c(Cl)cc2oc1=O [Example 73] | 296 to 298 °C | 
15 | N-(2,6-dimethoxyphenyl)-N′-[3-(2-methylphenyl)-6,7-dihydro-5H-indeno[5,6-b]furan-2-yl]urea [Compound B] |  | aortic cholesteryl ester content ([2]; apoE KO mouse, then normal diet with 10 mg/kg/day oral (b869 says) for 4 weeks, n = 10): 5.30 ± 0.37 µg/mg; % lesion area ([2]; apoE KO mouse, then normal diet with 10 mg/kg/day oral (b869 says) for 4 weeks, n = 10, P < 0.05% (Dunnett's test)): 23.3 ± 1.8 %

The next lines start with results.

Row | melting point | Compound | other results
16 | 205 to 207 °C | O=C(Cc1c(-c2ccccc2)c2cc(CN3CCOCC3)c(Cl)cc2oc1=O)Nc1ccc(Cl)cc1C(F)(F)F [Example 74, 2-[7-chloro-6-{(morpholin-4-yl)methyl}-2-oxo-4-phenyl-2H-chromen-3-yl]-N-(4-chloro-2-trifluoromethylphenyl)acetamide] | 
17 | 229 to 231 °C | COc1cccc(OC)c1NC(=O)Cc1c(-c2ccccc2)c2cc(COC(C)=O)c(Cl)cc2oc1=O [Example 80, [7-chloro-3-{2-(2,6-dimethoxyanilino)-2-oxoethyl}-2-oxo-4-phenyl-2H-chromen-6-yl]methyl acetate] | 
18 | 290 to 292 °C | CC(=O)OCc1cc2c(-c3ccccc3)c(CC(=O)Nc3c(C(C)C)cccc3C(C)C)c(=O)oc2cc1Cl [Example 81, [7-chloro-3-{2-(2,6-isopropylanilino)-2-oxoethyl}-2-oxo-4-phenyl-2H-chromen-6-yl]]methyl acetate] | 
19 | 186 to 187 °C | CC(=O)OCc1cc2c(-c3ccccc3)c(CC(=O)Nc3ccc(Cl)cc3C(F)(F)F)c(=O)oc2cc1Cl [Example 82, [7-chloro-3-{2-(4-chloro-2-trifluoromethylanilino)-2-oxoethyl}-2-oxo-4-phenyl-2H-chromen-6-yl]methyl acetate] | 
20 | 241 to 243 °C | O=C(Cc1c(-c2ccccc2)c2cc(CO)c(Cl)cc2oc1=O)Nc1ccc(Cl)cc1C(F)(F)F [Example 85] | 
21 | 226 to 227 °C | O=C(Cc1c(-c2ccccc2)c2cc(CO)ccc2oc1=O)Nc1ccc(Cl)cc1C(F)(F)F [Example 86] | 
22 | 220 to 222 °C | O=C(Cc1c(-c2ccccc2)c2cc(Cl)c(CO)cc2oc1=O)Nc1ccc(Cl)cc1C(F)(F)F [Example 87] | 
23 | 180 to 183 °C | O=C(Cc1c(-c2ccccc2)c2cc3c(cc2oc1=O)C(=O)CC3)Nc1ccc(F)cc1C(F)(F)F [Example 88, 2-(2,8-dioxo-4-phenyl-2,6,7,8-tetrahydrocyclopenta[g]chromen-3-yl)-N-[4-fluoro-2-(trifluoromethyl)phenyl]-acetamide] | 
24 | 189 to 192 °C | O=C(Cc1c(-c2ccccc2)c2cc3c(cc2oc1=O)C(=O)CC3)Nc1ccc(Cl)cc1C(F)(F)F [Example 89] | 
25 | 208 °C (dec.) | COc1cccc(OC)c1NC(=O)Nc1oc2cc3c(cc2c1-c1ccccc1C)CCC3 [Example 102, N-(2,6-Dimethoxyphenyl)-N′-[3-(2-methylphenyl)-6,7-dihydro-5H-indeno[5,6-b]furan-2-yl]urea] | 
26 | 237 to 238 °C | Cc1cc2oc(=O)c(CC(=O)Nc3ccc(F)cc3C(F)(F)F)c(-c3ccccc3)c2cc1Br [Example 177, 2-(6-bromo-7-methyl-2-oxo-4-phenyl-2H-chromen-3-yl)-N-[4-fluoro-2-(trifluoromethyl)phenyl]acetamide] | 
27 | 246 to 247 °C | COc1cc2c(-c3ccccc3)c(CC(=O)Nc3ccc(Cl)cc3C(F)(F)F)c(=O)oc2cc1Cl [Example 178, 2-(7-chloro-6-methoxy-2-oxo-4-phenyl-2H-chromen-3-yl)-N-[4-chloro-2-(trifluoromethyl)phenyl]acetamide] | 
28 | 205 to 207 °C | CNCc1cc2c(-c3ccccc3)c(CC(=O)Nc3ccc(Cl)cc3C(F)(F)F)c(=O)oc2cc1Cl [Example 180, 2-[6-[(methylamino)methyl]-7-chloro-2-oxo-4-phenyl-2H-chromen-3-yl]-N-[4-chloro-2-(trifluoromethyl)phenyl]acetamide] | 
29 | 163 to 164 °C | CCN(CC)Cc1cc2c(-c3ccccc3)c(CC(=O)Nc3ccc(Cl)cc3C(F)(F)F)c(=O)oc2cc1Cl [Example 182] | 
30 | 214 to 217 °C | O=C(Cc1c(-c2ccccc2)c2cc(CN3CCN(c4ncccn4)CC3)c(Cl)cc2oc1=O)Nc1ccc(Cl)cc1C(F)(F)F [Example 272] | 
31 | 203 to 205 °C | O=C(Cc1c(-c2ccccc2)c2cc(CN3CCN(c4ncccn4)CC3)c(Cl)cc2oc1=O)Nc1ccc(F)cc1C(F)(F)F [Example 273] | 
32 | 212 to 215 °C | Cc1cc2c(-c3cccnc3)c(CC(=O)Nc3ccc(Cl)cc3C(F)(F)F)c(=O)oc2cc1Cl [Example 329] | 
33 | 213 to 215 °C | Cc1cc2c(-c3cccnc3)c(CC(=O)Nc3ccc(F)cc3C(F)(F)F)c(=O)oc2cc1Cl [Example 330] | 
34 | 118 °C (dec.) | CCOC(=O)C=Cc1cccc(-c2c(CC(=O)Nc3ccc(Cl)cc3C(F)(F)F)c(=O)oc3cc(Cl)c(C)cc23)c1 [Example 336] | 
35 | 193 to 196 °C | CCOC(=O)C=Cc1cccc(-c2c(CC(=O)Nc3ccc(F)cc3C(F)(F)F)c(=O)oc3cc(Cl)c(C)cc23)c1 [Example 337] | 
